Values joined by “and” are separate entries in the source; they are usually repeats but may differ in a detail not shown here. Equal values may be shown once.

The target in assay [1] is kappa-type opioid receptor isoform 1 (Xenopus tropicalis, UniProt F7A0F2).
For assay [2], the target named is Kappa-type opioid receptor (Rattus norvegicus, UniProt P34975).
Kappa-type opioid receptor, sequence (P34975 whole entry): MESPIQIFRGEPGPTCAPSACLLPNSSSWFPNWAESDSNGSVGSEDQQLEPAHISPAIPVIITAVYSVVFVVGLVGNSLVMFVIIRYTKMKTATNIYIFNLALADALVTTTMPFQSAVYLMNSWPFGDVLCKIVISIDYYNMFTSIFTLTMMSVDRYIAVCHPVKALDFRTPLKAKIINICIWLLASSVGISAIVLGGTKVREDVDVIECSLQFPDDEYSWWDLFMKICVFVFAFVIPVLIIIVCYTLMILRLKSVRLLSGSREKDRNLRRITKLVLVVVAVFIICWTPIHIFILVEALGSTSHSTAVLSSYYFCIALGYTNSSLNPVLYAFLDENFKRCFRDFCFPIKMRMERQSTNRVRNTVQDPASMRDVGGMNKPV

kappa-type opioid receptor isoform 1, sequence (F7A0F2 whole entry, canonical isoform): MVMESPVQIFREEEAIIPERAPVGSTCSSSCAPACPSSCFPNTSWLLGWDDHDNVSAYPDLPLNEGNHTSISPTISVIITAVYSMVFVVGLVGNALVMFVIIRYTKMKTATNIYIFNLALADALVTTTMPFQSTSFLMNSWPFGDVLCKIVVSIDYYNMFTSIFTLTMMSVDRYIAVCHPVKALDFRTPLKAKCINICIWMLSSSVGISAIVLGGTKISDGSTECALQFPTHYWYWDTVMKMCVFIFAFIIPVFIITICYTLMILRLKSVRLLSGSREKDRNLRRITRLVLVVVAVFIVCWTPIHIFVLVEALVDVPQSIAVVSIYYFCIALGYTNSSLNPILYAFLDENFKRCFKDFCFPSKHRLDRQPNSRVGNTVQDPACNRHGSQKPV

One may read the Ki as the equilibrium dissociation constant of an inhibitor or competing ligand from its target. In assay [1], `CC1[C@H]2Cc3ccc(O)cc3[C@]1(C)CCN2C[C@@H]1CCCO1` (stereo partly drawn) [(+)-alpha-(1R,5R,9R)-5,9-Dimethyl-2-L-tetrahydrofurfuryl)-2'-hydroxy-6,7-benzomorphan] came in with a Ki of 5400 nM. On the same count and under the same terms, then `CC1[C@H]2Cc3ccc(O)cc3[C@]1(C)CCN2C[C@H]1CCCO1` (stereo partly drawn) [CAS_57236-85-8], with 4.8 nM. Regarding `CC[C@H](C)[C@H](NC(=O)[C@H](CCCNC(=N)N)NC(=O)[C@H](CCCNC(=N)N)NC(=O)[C@H](CC(C)C)NC(=O)[C@H](Cc1ccccc1)NC(=O)CNC(=O)CNC(=O)[C@@H](N)Cc1ccc(O)cc1)C(=O)N[C@@H](CCCNC(=N)N)C(=O)N1CCC[C@H]1C(=O)N[C@@H](CCCCN)C(=O)N[C@@H](CC(C)C)C(=O)N[C@@H](CCCCN)C(=O)O` [Dynorphin A (1-13)], the Ki is 57 nM in assay [2]; 12 nM and 3.1 nM in assay [1]. On to `[N-]=[N+]=N[C@@H]1CC[C@H]2[C@H]3Cc4ccc(O)c5c4[C@@]2(CCN3CC2CC2)[C@@H]1O5` [N-cyclopropylmethylnorazidomorphine], for which the inhibition constant Ki was 0.1 nM and 0.2 nM and 0.3 nM in assay [2]; 0.1 nM in assay [1]. On to `C[C@@H](NC(=O)[C@@H](N)Cc1ccc(O)cc1)C(=O)NCC(=O)N(C)[C@@H](Cc1ccccc1)C(=O)NCCO` [[tyrosyl-3,5-3H(N)]-D-Ala2-Mephe4-glyol5-enkephalin], for which, in assay [1], the Ki was 59 nM and 360 nM and 470 nM. With “H-YGGFMTSEKSQTPLVTLFKNAIVKNAHKKGQ-OH [Beta-Endorphin]”, in assay [2], affinity was put at a Ki of 2.3 nM.

The values are drawn from BindingDB's records for doi:10.1007/bf00965909 (Biological Research Center of Hungarian Academy of Sciences, 1990).
